The source of these data is patent US20070166317A1, “Microparticles” (priority 2003, published 2007).

In assay [1] the test system is CHO cells. As to the kind of experiment: Cellular association of peptide modified latex microparticles, confocal microscopy, CHO cells. The assay is classed as cell-based, Chinese Hamster. The following applies: 3 hours at 37° C., 10 ng peptide/μg Sigma carboxylate modified latex, 0.15 μg latex/μL of media, FIG. 4. How it is done:
(§1) Latex (50 to 100 μL) was added to PBS (890 to 945 μL) followed by peptide solution (5 to 10 μL) and the resultant 1 mL solution mixed. The material was left to stand at room temperature for 2 hours and then dialysed over night against 2 L of PBS in the dark at 4° C. The particles were then recovered stored at 4° C. in the dark and used without further treatment.
CHO stock culture was grown in Ham's F12 media supplemented with 10% foetal bovine serum, glutamine (2 mM), fungizone (50 mg/ml) and pen-strep (0.1 mg/ml). Cells were seeded at 1 to 2×10^4 cell/cm^2 using 0.25% trypsin-EDTA and maintained in a humidified 5% CO2 atmosphere, at 37° C. and sub-cultured twice a week.
(§2) Prior (48 hr) to an experiment CHO or HFFF2 cells were plated at 2×10^4/cm^2 in an 8 well chamber slide, 0.7 cm^2 and 0.2 mL/chamber. One day before the experiment, media was replaced with a similar media but containing no lipids. On the day of the experiment, the cells for 4° C. incubation were chilled for 15 minutes prior to any additions. The wells were washed with 0.1 mL of phosphate buffered saline (PBS) and the synthetic LDL system in media added. The slides were then incubated for 1 or 3 hours at either 4° C. or 37° C. the latter in a humidified 5% CO2 atmosphere. […] The lens employed was ×20 PA with a numerical aperture of 0.75 and the data analysed using “Laser-sharp” software (Bio-Rad).

Assay [2] deals with T1, LDL receptor (Homo sapiens, UniProt P01130).
T1 construct: endogenous in cells; host or cells: HFFF-2 fibroblast cells (ECACC 86031405)
T1 sequence (P01130 22-860): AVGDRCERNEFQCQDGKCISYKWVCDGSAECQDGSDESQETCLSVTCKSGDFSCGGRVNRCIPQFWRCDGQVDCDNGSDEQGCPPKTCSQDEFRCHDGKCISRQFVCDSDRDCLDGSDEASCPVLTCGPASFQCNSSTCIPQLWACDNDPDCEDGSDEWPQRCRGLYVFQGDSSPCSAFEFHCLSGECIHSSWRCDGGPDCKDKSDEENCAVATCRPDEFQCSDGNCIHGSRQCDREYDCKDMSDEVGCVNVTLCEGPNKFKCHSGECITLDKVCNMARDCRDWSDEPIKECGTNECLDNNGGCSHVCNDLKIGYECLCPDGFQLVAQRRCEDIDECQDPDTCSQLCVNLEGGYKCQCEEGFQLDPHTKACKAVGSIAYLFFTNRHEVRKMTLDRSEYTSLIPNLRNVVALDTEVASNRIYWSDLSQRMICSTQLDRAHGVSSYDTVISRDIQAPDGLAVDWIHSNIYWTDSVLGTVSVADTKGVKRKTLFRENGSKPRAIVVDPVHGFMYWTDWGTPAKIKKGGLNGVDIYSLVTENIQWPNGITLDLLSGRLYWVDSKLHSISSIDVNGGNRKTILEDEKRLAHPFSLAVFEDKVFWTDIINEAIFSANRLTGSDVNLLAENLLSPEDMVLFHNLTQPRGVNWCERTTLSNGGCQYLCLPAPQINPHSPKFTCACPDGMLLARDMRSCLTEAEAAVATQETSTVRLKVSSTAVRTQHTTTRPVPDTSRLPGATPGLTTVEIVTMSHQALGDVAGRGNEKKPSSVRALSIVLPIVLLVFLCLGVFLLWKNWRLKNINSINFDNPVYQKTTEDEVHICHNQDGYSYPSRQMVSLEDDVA
As to the kind of experiment: Effect of anti-LDL receptor antibody on cellular association of peptide modified latex, confocal microscopy, HFFF-2 cells. The assay is classed as cell-based. The following applies: 3 hours at 37° C., antibody 8 μg/mL, peptide on Fluoresbrite latex, 0.15 μg latex/μL, FIG. 5. How it is done: as §1
(§3) HFFF2 stock culture was grown in Dulbecco's modified Eagle's media supplemented with 10% v/v foetal bovine serum, glutamine (2 mM), fungizone (50 mg/ml) and pen-strep (0.1 mg/ml). Cells were seeded at 2 to 3×10^4 cell/cm^2 using 0.25% trypsin-EDTA and maintained in a humidified 5% CO2 atmosphere, at 37° C. and sub-cultured twice a week.
as §2

In assay [3] the target is T1, LDL receptor. As to the kind of experiment: Effect of anti-LDL receptor antibody on cellular association of peptide modified latex, normal fluorescent microscopy, HFFF-2 cells. The assay is classed as cell-based. Conditions: 3 hours at 37° C., antibody 8 μg/mL, peptide on Sigma carboxylate modified latex, 0.15 μg latex/μL, FIG. 6. On the procedure: as §1, §3
Prior (48 hr) to an experiment CHO or HFFF2 cells were plated at 2×10^4/cm^2 in an 8 well chamber slide, 0.7 cm^2 and 0.2 mL/chamber. One day before the experiment, media was replaced with a similar media but containing no lipids. On the date of the experiment, the cells for 4° C. incubation were chilled for 15 minutes prior to any additions. The wells were washed with 0.1 mL of phosphate buffered saline (PBS) and the synthetic LDL microparticle system, in media, added. The slides were then incubated for 1 or 3 hours at either 4° C. or 37° C. the latter in a humidified 5% CO2 atmosphere. […]

On to “peptide 4: Pyrene Butyric Acid-Lys-Leu-Glu-Gly-Thr-Thr-Arg-Leu-Thr-Arg-Lys-Arg-Gly-Leu-Lys-Leu-Ala-Thr-Ala-Leu-Ser-Leu-Phe-Leu-Phe-Cholesterol ({pyrene butyric acid}-KLEGTTRLTRKRGLKLATALSLFLF-cholesterol)”, for which, in assay [1], the “cellular association of peptide modified latex (rank order between peptides, fluorescence)” value is “increased cellular association for peptide 4 followed by peptide 3 and then peptide 1”. Besides, the “reduction of cellular association by anti-LDL receptor antibody (confocal microscopy)” value in assay [2] is on record as “the reduction is not as great”.

As for “peptide 3: Retinoic Acid-Tyr-Lys-Leu-Glu-Gly-Thr-Thr-Arg-Leu-Thr-Arg-Lys-Arg-Gly-Leu-Lys-Leu-Ala-Thr-Ala-Leu-Ser-Cholesterol ({retinoic acid}-YKLEGTTRLTRKRGLKLATALS-cholesterol)”, the “cellular association of peptide modified latex (rank order between peptides, fluorescence)” value in assay [1] is “increased cellular association for peptide 4 followed by peptide 3 and then peptide 1”. In assay [3], the “reduction of cellular association by anti-LDL receptor antibody (normal fluorescent microscopy)” value was “the reduction due to the presence of the antibody is clearly visible”.
